Patent US20190208782A1, “PROCESSING COMPOSITION FOR C[…] WEEDS” (Arch Chemicals, Inc., priority 2018, published 2019)
In brackets after ≈: the same amount, converted by molar mass.

Key:
Type in all cases: in vivo
Eurasian watermilfoil [1] = assay: Fluroxypyr potassium salt formulations vs ester on Eurasian watermilfoil under mesocosm conditions (Example 4); details: 200 ug/L, 24 h exposure, 4 WAT
Method: Eurasian watermilfoil was obtained from cultures. Two apical tips approximately 15 cm long were planted into each of 204, plastic containers (940 mL). The containers were filled with potting soil and amended with 2 g/L/soil Osmocote® fertilizer 19-6-12. Four containers of potted Eurasian watermilfoil were placed into each of 51 mesocosm tanks. Tanks were filled to a volume of 257 L and plants allowed to grow approximately 2-3 weeks prior to herbicide treatments, or until plants were at or near the water surface. Pre-treatment biomass was harvested from three tanks set up with pots for this purpose. Biomass was harvested by collecting aboveground biomass of plants from all of the pots in each of the pretreatment tanks. Plant material was placed into individually labeled paper bags, dried in a force air oven at 50 C for at least 48 h, and then weighed to assess biomass,
After pre-treatment data collection, liquid herbicides were applied as a concentrated aqueous formulation using the rates and products outlined in Table 6. […]
Four weeks after treatment (WAT), living plants were, harvested, sorted to aboveground biomass (if any), dried in a forced air oven at 50 C for at least 48 h, and weighed for biomass determination. Differences between treatments were analyzed using ANOVA with treatment means separated using a Fisher's Protected LSD test at a p≤0.05 significance level.

Eurasian watermilfoil [2] = assay: Efficacy of fluroxypyr herbicide on Eurasian watermilfoil under mesocosm conditions (Example 1); details: 24 h exposure
Description: Materials and Methods: Eurasian watermilfoil was obtained from cultures. Two apical tips approximately 15 cm long were planted into each of 108, plastic containers. The containers were filled with Black Kow potting soil and amended with 2 g/L Osmocote fertilizer 19-6-12. Four containers of potted Eurasian watermilfoil were placed into each of 27 mesocosm tanks. Mesocosm tanks were filled to a volume of 276 L (48 cm depth) and plants allowed to grow approximately 2-3 weeks prior to herbicide treatments or until plants were at or near the water surface. Pre-treatment biomass was harvested from an extra mesocosm tank set up with potted Eurasian watermilfoil for this purpose. Biomass was harvested by collecting aboveground biomass of plants in the tank. Plant material were dried at 70 C for at least 48 h and weighed to assess biomass.
After pre-treatment data collection, concentrated liquid herbicides were applied as the formulations and rates outlined in Table 1. An untreated reference was also included for comparison purposes. All herbicide applications were made using a 24 h exposure and replicated 3 times. After the exposure time was reached, each mesocosm tank was drained and refilled with fresh water to remove any herbicide residue remaining in the water column.
Each week, tanks were rated for percent control on a 0-100% scale (0%=no control; 100%=complete plant mortality). Four weeks after treatment (WAT), living plants were harvested, sorted to aboveground biomass, dried, and weighed for biomass determination. Differences between treatments were analyzed using an ANOVA test with means separated using a Fisher's Protected LSD test. Fluroxypyr data were fitted to an exponential decay regression model in order to estimate the EC50 value for fluroxypyr use on Eurasian watermilfoil.

water hyacinth = assay: Fluroxypyr ester and four potassium salt formulations as foliar application on water hyacinth (Example 5)
Method: Materials and Methods: Water hyacinth was obtained from field locations in Mississippi and cultured in a 300 gallon tank outdoors. Water in the culture tank was amended with 30 mg/L Miracle-Gro fertilizer (14-8-16) every week to maintain plant growth. Once a sufficient density of water hyacinth had been achieved in the culture tank, rosettes of similar size were harvested and divided so that six to seven rosettes were placed into each of 33, 100 gallon treatment tanks. The treatment tanks were filled to a depth of 45 cm with water. Water was amended with 30 mg/L of Miracle-Gro fertilizer to maintain plant growth. Plants were allowed to grow until the water surface in each tank had been covered by water hyacinth.
After the growth period plants were treated as a foliar spray based on the formulations and rates in Table 7. The treatments contained the fluroxypyr herbicide in an amount of 15% by weight. Each surfactant was added in an amount of 10% by weight. The remainder of the formulation was distilled water. Treatments were applied using water as a carrier in a fine foliar spray at a total spray volume of 100 gal/acre using a CO2 pressurized backpack sprayer and single nozzle boom. AB Brand Adjuvant was included in the herbicide solution at a rate of 0.25% v:v.
After treatment, each tank was rated for percent control from 0 to 100% control every week for four weeks. At four weeks after treatment (WAT) a 0.1 m^2 PVC quadrat was used to harvest 1 biomass sample from each tank if living biomass was present. Biomass samples were placed into labeled paper bags, dried in a forced air oven at 50 C for five days, and then weighed to determine dry weight biomass (g/DW/m^2). Differences between treatments were analyzed using ANOVA and means separated using a Fisher's Protected LSD test. All analyses were conducted a p≤0.05 significance level.

CCCCCCC(C)OC(=O)COc1nc(F)c(Cl)c(N)c1Cl (centres unmarked) [Fluroxypyr ester, [(4-amino-3,5-dichloro-6-fluoro-2-pyridinyl)oxy]acetic acid, 1-methylheptyl ester]
Eurasian watermilfoil biomass reduction (Eurasian watermilfoil [1]): 98%
Visual control ratings of Eurasian watermilfoil (Eurasian watermilfoil [2]; 50 ug/L, 1 WAT): 30%
Visual control ratings of Eurasian watermilfoil (Eurasian watermilfoil [2]; 50 ug/L, 2 WAT): 60%
Visual control ratings of Eurasian watermilfoil (Eurasian watermilfoil [2]; 50 ug/L, 3 WAT): 50%
Visual control ratings of Eurasian watermilfoil (Eurasian watermilfoil [2]; 50 ug/L, 4 WAT): 45%
biomass reduction of Eurasian watermilfoil (Eurasian watermilfoil [2]; 50 ug/L, 4 WAT): 76%
Visual control ratings of Eurasian watermilfoil (Eurasian watermilfoil [2]; 100 ug/L, 1 WAT): 60%
Visual control ratings of Eurasian watermilfoil (Eurasian watermilfoil [2]; 100 ug/L, 2 WAT): 90%
Visual control ratings of Eurasian watermilfoil (Eurasian watermilfoil [2]; 100 ug/L, 3 WAT): 90%
Visual control ratings of Eurasian watermilfoil (Eurasian watermilfoil [2]; 100 ug/L, 4 WAT): 95%
biomass reduction of Eurasian watermilfoil (Eurasian watermilfoil [2]; 100 ug/L, 4 WAT): 99%
Visual control ratings of Eurasian watermilfoil (Eurasian watermilfoil [2]; 200 ug/L, 1 WAT): 60%
Visual control ratings of Eurasian watermilfoil (Eurasian watermilfoil [2]; 200 ug/L, 2 WAT): 100%
Visual control ratings of Eurasian watermilfoil (Eurasian watermilfoil [2]; 200 ug/L, 3 WAT): 100%
Visual control ratings of Eurasian watermilfoil (Eurasian watermilfoil [2]; 200 ug/L, 4 WAT): 100%
Visual control ratings of Eurasian watermilfoil (Eurasian watermilfoil [2]; 400 ug/L, 1 WAT): 70%
Visual control ratings of Eurasian watermilfoil (Eurasian watermilfoil [2]; 400 ug/L, 2 WAT): 100%
Visual control ratings of Eurasian watermilfoil (Eurasian watermilfoil [2]; 400 ug/L, 3 WAT): 100%
Visual control ratings of Eurasian watermilfoil (Eurasian watermilfoil [2]; 400 ug/L, 4 WAT): 100%
Visual control ratings of Eurasian watermilfoil (Eurasian watermilfoil [2]; 800 ug/L, 1 WAT): 70%
Visual control ratings of Eurasian watermilfoil (Eurasian watermilfoil [2]; 800 ug/L, 2 WAT): 100%
Visual control ratings of Eurasian watermilfoil (Eurasian watermilfoil [2]; 800 ug/L, 3 WAT): 100%
Visual control ratings of Eurasian watermilfoil (Eurasian watermilfoil [2]; 800 ug/L, 4 WAT): 100%
Visual control ratings of Eurasian watermilfoil (Eurasian watermilfoil [2]; 1600 ug/L, 1 WAT): 80%
Visual control ratings of Eurasian watermilfoil (Eurasian watermilfoil [2]; 1600 ug/L, 2 WAT): 100%
Visual control ratings of Eurasian watermilfoil (Eurasian watermilfoil [2]; 1600 ug/L, 3 WAT): 100%
Visual control ratings of Eurasian watermilfoil (Eurasian watermilfoil [2]; 1600 ug/L, 4 WAT): 100%
Visual control ratings of Eurasian watermilfoil (Eurasian watermilfoil [2]; 3200 ug/L, 1 WAT): 80%
Visual control ratings of Eurasian watermilfoil (Eurasian watermilfoil [2]; 3200 ug/L, 2 WAT): 100%
Visual control ratings of Eurasian watermilfoil (Eurasian watermilfoil [2]; 3200 ug/L, 3 WAT): 100%
Visual control ratings of Eurasian watermilfoil (Eurasian watermilfoil [2]; 3200 ug/L, 4 WAT): 100%
EC50 (Eurasian watermilfoil [2]; 4 WAT, mesocosm, read-out: EC50 for Eurasian watermilfoil (biomass, exponential decay regression model)): 8.8 ng/mL (≈ 0.024 µM)
efficacy on water hyacinth biomass relative to the other fluroxypyr treatments (water hyacinth; 4 WAT, Ester 8 oz/acre, potassium salt formulations 10 oz/acre, FIG. 6): not as efficacious as the other fluroxypyr treatments
Mean percent control ratings of water hyacinth (water hyacinth; 8 oz/acre foliar, 1 WAT): 20%
Mean percent control ratings of water hyacinth (water hyacinth; 8 oz/acre foliar, 2 WAT): 25%
Mean percent control ratings of water hyacinth (water hyacinth; 8 oz/acre foliar, 3 WAT): 55%
Mean percent control ratings of water hyacinth (water hyacinth; 8 oz/acre foliar, 4 WAT): 75%
Mean percent control ratings of water hyacinth (water hyacinth; 16 oz/acre foliar, 1 WAT): 20%
Mean percent control ratings of water hyacinth (water hyacinth; 16 oz/acre foliar, 2 WAT): 45%
Mean percent control ratings of water hyacinth (water hyacinth; 16 oz/acre foliar, 3 WAT): 85%
Mean percent control ratings of water hyacinth (water hyacinth; 16 oz/acre foliar, 4 WAT): 95%
